Patent US12479830B2, “Homopiperazinyl and homopiperidinyl quinazolin-4(3H)-one derivatives having multimodal activity against pain” (ESTEVE PHARMACEUTICALS, S.A., priority 2019, dated 2025)

Assays:
[1] = target: T1, Human σ1 receptor (Homo sapiens, UniProt Q99720); test: Human σ1 receptor radioligand assay ([3H](+)-pentazocine binding); conditions: binding to the σ1 receptor, expressed as Ki class; + also covers inhibition between 1% and 50%
T1 construct: expressed in transfected cells; host or cells: HEK-293
Protocol: Human σ1 Receptor Radioligand Assay
Transfected HEK-293 membranes (7 μg) were incubated with 5 nM of [^3H](+)-pentazocine in assay buffer containing Tris-HCl 50 mM at pH 8. NBS (non-specific binding) was measured by adding 10 μM haloperidol. The binding of the test compound was measured at either one concentration (% inhibition at 1 or 10 μM) or five different concentrations to determine affinity values (Ki). Plates were incubated at 37° C. for 120 minutes. After the incubation period, the reaction mix was then transferred to MultiScreen HTS, FC plates (Millipore), filtered and plates were washed 3 times with ice-cold 10 mM Tris-HCL (pH7.4). Filters were dried and counted at approximately 40% efficiency in a MicroBeta scintillation counter (Perkin-Elmer) using EcoScint liquid scintillation cocktail.

[2] = target: Human α2δ-1 subunit of Cav2.2 calcium channel (Homo sapiens, UniProt P54289); test: Human α2δ-1 subunit of Cav2.2 calcium channel assay ([3H]-gabapentin binding); conditions: binding to the α2δ-1 subunit of voltage-gated calcium channels, expressed as Ki class; + also covers inhibition between 1% and 50%
Protocol: Human α2δ-1 Subunit of Cav2.2 Calcium Channel Assay
Human α2δ-1 enriched membranes (2.5 μg) were incubated with 15 nM of radiolabeled [^3H]-Gabapentin in assay buffer containing Hepes-KOH 10 mM. pH 7.4. NSB (non specific binding) was measured by adding 10 μM pregabalin. The binding of the test compound was measured at either one concentration (% inhibition at 1 or 10 μM) or five different concentrations to determine affinity values (Ki). After 60 min incubation at 27° C., binding reaction was terminated by filtering through Multiscreen GF/C (Millipore) presoaked in 0.5% polyethyleneimine in Vacuum Manifold Station, followed by 3 washes with ice-cold filtration buffer containing 50 mM Tris-HCl, pH 7.4. Filter plates were dried at 60° C. for 1 h and 30 μL of scintillation cocktail were added to each well before radioactivity reading. Readings were performed in a Trilux 1450 Microbeta radioactive counter (Perkin Elmer).

Human α2δ-1 subunit of Cav2.2 calcium channel, sequence (P54289 25-1103): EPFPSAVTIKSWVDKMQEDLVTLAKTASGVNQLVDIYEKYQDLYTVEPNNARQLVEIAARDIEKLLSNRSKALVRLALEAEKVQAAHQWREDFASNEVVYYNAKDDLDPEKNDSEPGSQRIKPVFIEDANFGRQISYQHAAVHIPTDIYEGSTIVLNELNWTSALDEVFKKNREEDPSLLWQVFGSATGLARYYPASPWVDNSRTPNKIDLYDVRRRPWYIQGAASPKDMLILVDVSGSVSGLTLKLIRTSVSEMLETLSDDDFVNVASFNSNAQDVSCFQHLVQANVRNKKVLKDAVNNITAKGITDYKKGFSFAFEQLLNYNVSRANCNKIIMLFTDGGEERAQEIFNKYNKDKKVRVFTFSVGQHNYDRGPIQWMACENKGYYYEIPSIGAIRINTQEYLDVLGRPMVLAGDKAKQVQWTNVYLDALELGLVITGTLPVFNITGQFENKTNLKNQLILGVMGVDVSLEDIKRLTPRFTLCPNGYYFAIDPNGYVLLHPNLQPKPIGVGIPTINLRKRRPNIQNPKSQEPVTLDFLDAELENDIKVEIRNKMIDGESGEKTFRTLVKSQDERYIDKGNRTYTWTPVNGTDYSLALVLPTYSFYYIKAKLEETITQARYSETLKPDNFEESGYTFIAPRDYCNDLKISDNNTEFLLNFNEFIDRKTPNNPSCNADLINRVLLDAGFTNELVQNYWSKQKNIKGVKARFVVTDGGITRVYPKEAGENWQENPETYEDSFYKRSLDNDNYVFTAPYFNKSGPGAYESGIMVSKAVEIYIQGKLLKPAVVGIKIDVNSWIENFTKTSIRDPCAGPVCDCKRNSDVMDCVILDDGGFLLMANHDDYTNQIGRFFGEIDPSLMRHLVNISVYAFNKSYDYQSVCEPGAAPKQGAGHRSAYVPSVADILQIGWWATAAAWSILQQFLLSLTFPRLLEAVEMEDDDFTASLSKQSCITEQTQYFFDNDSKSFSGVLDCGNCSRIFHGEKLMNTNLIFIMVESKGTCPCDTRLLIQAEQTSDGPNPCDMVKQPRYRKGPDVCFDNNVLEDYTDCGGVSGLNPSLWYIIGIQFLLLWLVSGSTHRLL
T1 sequence (Q99720 whole entry): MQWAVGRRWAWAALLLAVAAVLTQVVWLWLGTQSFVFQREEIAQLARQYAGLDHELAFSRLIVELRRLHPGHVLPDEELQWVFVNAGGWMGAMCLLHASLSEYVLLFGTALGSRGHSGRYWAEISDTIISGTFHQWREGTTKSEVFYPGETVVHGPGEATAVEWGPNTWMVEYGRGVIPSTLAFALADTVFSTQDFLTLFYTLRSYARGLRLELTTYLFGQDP

Ki [1]	Ki [2]	Compound
< 500 nM	500 to 5000 nM	CCC[C@H](c1nc2ccc(F)cc2c(=O)n1Cc1ccoc1)N1CCCN(CC)CC1 [Example 228, (R)-2-(1-(4-ethyl-1,4-diazepan-1-yl)butyl)-6-fluoro-3-(furan-3-ylmethyl)quinazolin-4(3H)-one]
500 to 1000 nM	< 500 nM	CCC[C@H](c1nc2c(F)cc(Br)cc2c(=O)n1CC)N1CCCN(C)CC1 [Example 161, (R)-6-Bromo-3-ethyl-8-fluoro-2-(1-(4-methyl-1,4-diazepan-1-yl)butyl)quinazolin-4(3H)-one]
> 1000 nM	> 5000 nM	CCC[C@@H](c1nc2ccc(Br)cc2c(=O)n1CC)N1CCNC[C@H](O)C1 [Example 115, 6-bromo-3-ethyl-2-((S)-1-((S)-6-hydroxy-1,4-diazepan-1-yl)butyl)quinazolin-4(3H)-one]
< 500 nM	< 500 nM	CCC[C@H](c1nc2cc(Cl)c(Cl)cc2c(=O)n1CC)N1CCN(C)C[C@@H](C)C1 [Example 132, 6,7-dichloro-2-((R)-1-((R)-4,6-dimethyl-1,4-diazepan-1-yl)butyl)-3-ethylquinazolin-4(3H)-one]
> 1000 nM	> 5000 nM	CCC[C@@H](c1nc2ccc(Br)cc2c(=O)n1CC)N1CCN[C@@H](C)CC1 [Example 95, 6-bromo-3-ethyl-2-((S)-1-((S)-5-methyl-1,4-diazepan-1-yl)butyl)quinazolin-4(3H)-one]
< 500 nM	< 500 nM	CCCC(c1nc2ccc(Br)cc2c(=O)n1CCC)N1CCCN(CC)CC1 (centres unmarked) [Example 20, 6-bromo-2-(1-(4-ethyl-1,4-diazepan-1-yl)butyl)-3-propylquinazolin-4(3H)-one]
< 500 nM	500 to 5000 nM	CCCC(c1nc2cccc(Br)c2c(=O)n1CC)N1CCCN(C)CC1 (centres unmarked) [Example 53, 5-bromo-3-ethyl-2-(1-(4-methyl-1,4-diazepan-1-yl)butyl)quinazolin-4(3H)-one]
> 1000 nM	> 5000 nM	CCC[C@@H](c1nc2ccc(F)cc2c(=O)n1CC)N1CCCN[C@@H](C)C1 [Example 144, 3-ethyl-6-fluoro-2-((S)-1-((S)-3-methyl-1,4-diazepan-1-yl)butyl)quinazolin-4(3H)-one]
> 1000 nM	< 500 nM	CCCC(c1nc2ccc(F)cc2c(=O)n1CC)C1CCCNCC1 (centres unmarked) [Example 266, 2-(1-(Azepan-4-yl)butyl)-3-ethyl-6-fluoroquinazolin-4(3H)-one]
500 to 1000 nM	< 500 nM	CCCC(c1nc2ccc(F)cc2c(=O)n1CC)C1CCCN(C)CC1 (centres unmarked) [Example 267, 3-ethyl-6-fluoro-2-(1-(1-methylazepan-4-yl)butyl)quinazolin-4(3H)-one]
500 to 1000 nM	< 500 nM	CCC[C@H](c1nc2ccc(Br)cc2c(=O)n1CC)N1CCN(C)C[C@H](CO)C1 [Example 123, 6-Bromo-3-ethyl-2-((R)-1-((S)-6-(hydroxymethyl)-4-methyl-1,4-diazepan-1-yl)butyl)quinazolin-4(3H)-one]
500 to 1000 nM	> 5000 nM	CCC[C@@H](c1nc2ccc(Br)cc2c(=O)n1CC)N1CCN(C)C[C@@H](COC)C1 [Example 108, 6-bromo-3-ethyl-2-((S)-1-((R)-6-(methoxymethyl)-4-methyl-1,4-diazepan-1-yl)butyl)quinazolin-4(3/1)-one]
> 1000 nM	< 500 nM	CCC[C@H](c1nc2ncc(Br)cc2c(=O)n1CC)N1CCNC[C@@H](C)C1 [Example 199, 6-bromo-3-ethyl-2-((R)-1-((R)-6-methyl-1,4-diazepan-1-yl)butyl)pyrido[2,3-d]pyrimidin-4(3H)-one]
> 1000 nM	> 5000 nM	CCCC(c1nc2cccnc2c(=O)n1CC)N1CCCN(CC)CC1 (centres unmarked) [Example 88, 3-ethyl-2-(1-(4-ethyl-1,4-diazepan-1-yl)butyl)pyrido[3,2-d]pyrimidin-4(3H)-one]
> 1000 nM	500 to 5000 nM	CCC[C@@H](c1nc2ccc(Br)cc2c(=O)n1CC)N1CCN(C)C[C@@H](CO)C1 [Example 124, 6-bromo-3-ethyl-2-((S)-1-((R)-6-(hydroxymethyl)-4-methyl-1,4-diazepan-1-yl)butyl)quinazolin-4(3H)-one]
< 500 nM	< 500 nM	CCCC(c1nc2cc(F)c(Cl)cc2c(=O)n1CC)N1CCCN(C)CC1 (centres unmarked) [Example 89, 6-chloro-3-ethyl-7-fluoro-2-(1-(4-methyl-1,4-diazepan-1-yl)butyl)quinazolin-4(3H)-one]
< 500 nM	< 500 nM	CCCC(c1nc2ccc(F)cc2c(=O)n1CC(C)C)N1CCCN(C)CC1 (centres unmarked) [Example 43, 6-fluoro-3-isobutyl-2-(1-(4-methyl-1,4-diazepan-1-yl)butyl)quinazolin-4(3H)-one]
500 to 1000 nM	> 5000 nM	CCCC(c1nc2c(C)cc(Br)cc2c(=O)n1CC)N1CCCN(C)CC1 (centres unmarked) [Example 25, 6-bromo-3-ethyl-8-methyl-2-(1-(4-methyl-1,4-diazepan-1-yl)butyl)quinazolin-4(3H)-one]
500 to 1000 nM	> 5000 nM	CCCC(c1nc2ccc(Br)cc2c(=O)[nH]1)N1CCCN(C)CC1 (centres unmarked) [Example 122, 6-bromo-2-(1-(4-methyl-1,4-diazepan-1-yl)butyl)quinazolin-4(3H)-one]
> 1000 nM	< 500 nM	CCC[C@H](c1nc2ccc(Br)cc2c(=O)n1CC)N1CCCN[C@@H](C)C1 [Example 142, 6-bromo-3-ethyl-2-((R)-1-((S)-3-methyl-1,4-diazepan-1-yl)butyl)quinazolin-4(3H)-one]
< 500 nM	< 500 nM	CCCC(c1nc2ccc(F)cc2c(=O)n1CC(C)C)N1CCCN(CC)CC1 (centres unmarked) [Example 50, 2-(1-(4-ethyl-1,4-diazepan-1-yl)butyl)-6-fluoro-3-isobutylquinazolin-4(3H)-one]
500 to 1000 nM	< 500 nM	CCCC(c1nc2cc(Br)c(F)cc2c(=O)n1CCC)N1CCCN(C)CC1 (centres unmarked) [Example 31, 7-bromo-6-fluoro-2-(1-(4-methyl-1,4-diazepan-1-yl)butyl)-3-propylquinazolin-4(3H)-one]
> 1000 nM	< 500 nM	CCCC(c1nc2ncccc2c(=O)n1CC)N1CCCN(CC)CC1 (centres unmarked) [Example 178, 3-ethyl-2-(1-(4-ethyl-1,4-diazepan-1-yl)butyl)pyrido[2,3-d]pyrimidin-4(3H)-one]
< 500 nM	500 to 5000 nM	CCC[C@H](c1nc2ccc(Cl)cc2c(=O)n1C)N1CCN[C@@H](C)CC1 [Example 246, 6-chloro-3-methyl-2-((R)-1-((S)-5-methyl-1,4-diazepan-1-yl)butyl)quinazolin-4(3H)-one]
> 1000 nM	< 500 nM	CCCC(c1nc2cc(F)c(Cl)cc2c(=O)n1CC)N1CCCNCC1 (centres unmarked) [Example 90, 2-(1-(1,4-diazepan-1-yl)butyl)-6-chloro-3-ethyl-7-fluoroquinazolin-4(3H)-one]
> 1000 nM	> 5000 nM	CCCC(c1nc2ccc(Br)cc2c(=O)n1CC(=O)O)N1CCCN(C)CC1 (centres unmarked) [Example 208, 2-(6-Bromo-2-(1-(4-methyl-1,4-diazepan-1-yl)butyl)-4-oxoquinazolin-3(4H)-yl)acetic acid]
< 500 nM		CCCC(c1nc2ccc(Br)c(F)c2c(=O)n1CC)N1CCCN(C)CC1 (centres unmarked) [Example 51, 6-bromo-3-ethyl-5-fluoro-2-(1-(4-methyl-1,4-diazepan-1-yl)butyl)quinazolin-4(3H)-one]
